Consider four molecules from US20170354592A1 (ASCENDIA PHARMACEUTICALS, LLC, priority 2016, published 2017).

One series concerns β-adrenoceptor. Particulars: cited from earlier work; for potency as a β-adrenoceptor antagonist versus Carvedilol: relative to carvedilol, Hoffman (2001), Tenero et al (2000).
Series [1] in a line: Single IV injection of carvedilol liposomes and free-carvedilol solution, plasma PK. To be noted: rats, single iv 2.5 mg/kg. The method, then:
(§1) 15 cannulated and non-cannulated, 9 and 6 rats respectively, Sprague-Dawley® male rats were divided into 3 groups. […] Treatment was administered intravenously. During the experiment, rats were inspected twice daily for vitality and as needed after dosing and intermittently and vitals, including blood pressure, heart rate, and temperature, were recorded from the non-cannulated animals. Main vital signs were monitored prior to and at multiple time points after dose administration. Blood pressure and heart rate were measured using a non-invasive tail cuff system after a brief acclimation period. Blood samples (approximately 300-325 μL each) were collected from cannulated rats at each time point into tubes containing K2EDTA.
(§2) Following centrifugation at 4° C., the plasma was collected and stored at −80° C. The blood sampling time points were as follows: prior to (PRE) and approximately 0.25, 0.5, 1, 2, 3, 8, 10 and 24 hours after dose administration. Samples were collected via Jugular Vein Cannulas.

A short description of series [2]: Vital signs and adverse reactions after IV dose (non-invasive tail cuff). Particulars: rats iv 2.5 mg/kg. The method, then: as §1, §2
The conditions of series [3]: cited from earlier work.

As for `COc1cc(O)ccc1OCCNCC(O)COc1cccc2[nH]c3ccccc3c12` (stereo not shown) [4-hydroxyphenyl-carvedilol], the “potency in β-blockade versus the parent compound” value in the series on β-adrenoceptor (more potent than carvedilol) is recorded as “about 13 fold”. For the same molecule, the “potency as a β-adrenoceptor antagonist versus Carvedilol” value in the series with β-adrenoceptor is listed as “about 13 times”.
With `COc1ccc(O)cc1OCCNCC(O)COc1cccc2[nH]c3ccccc3c12` (stereo not shown) [5-hydroxyphenyl-carvedilol], in the series with β-adrenoceptor, the “potency as a β-adrenoceptor antagonist versus Carvedilol” value was “one-half”.
`Oc1ccccc1OCCNCC(O)COc1cccc2[nH]c3ccccc3c12` (stereo not shown) [desmethylcarvedilol]: in the series with β-adrenoceptor, the “potency as a β-adrenoceptor antagonist versus Carvedilol” value is “approximately 2.5 times”.
One may read the Cmax as the peak of the concentration-time curve. As a reminder, the Tmax is the time at which the peak concentration occurs. One may read the Vss as a proportionality between amount in the body and measured concentration, not a real space. Low values mean confinement near the circulation, high ones extensive tissue distribution. Usually pKa stands for the pH at which an ionisable group is half protonated. Turning to “(±)-[3-(9H-carbazol-4-yloxy)-2-hydroxypropyl][2-(2-ethoxyphenoxy)ethyl] amine [Carvedilol]”, the “time after dose at which carvedilol was cleared from plasma” value in series [1] (FIG. 3) was found to be 3 h. In addition, in series [1] (mean), the “AUC(0-T)” value came out at 284 ng·h/mL, the “AUC(INF)” value was 291 ng·h/mL, the CL turned out to be 144.0 mL/min/kg and the Cmax was found to be 354 ng/mL. Also, in series [1] (mean), the T-HALF turned out to be 0.52 h, the time of peak concentration (Tmax) is 15 min and the Vss amounted to 6.4 L/kg. In series [2] (1 Hour after dose), the Diastolic is listed as 40, the HR is recorded as 363 Beats/min, the MAP is listed as 69 and the Temp is reported as 99 ° F. In series [2] (15 min after dose), this molecule yielded a Diastolic of 48, an HR of 354 Beats/min, an MAP of 73 and a Temp of 98 ° F. In series [2] (30 min after dose), this molecule showed a Diastolic of 33, an HR of 360 Beats/min, an MAP of 60 and a Temp of 99 ° F. Besides, the pKa in series [3] was 7.8.
